A short description of data set [1]: Fluorescence recovery by reducing agent (DTT) treatment. Conditions: 5 mM DTT; for Increase of fluorescence intensity by DTT treatment: 4 hours, conjugate 2 μM in PBS, λEx 400 nm, λEm 665 nm. Here is the method: The increase of fluorescence and reactive oxygen generation by reducing agent treatment was analyzed.
In the dithiothreitol (DTT) treatment sample, which is a reducing agent, 2 μM of a conjugate was mixed with 2 μM and 5 mM DTT, and the same amount of phosphate-buffered saline (PBS) was added to the buffer-treated group. The fluorescent intensity of the mixed solution (200 μl) was measured at intervals of 30 minutes for 4 hours (λEx. 400 nm, λEm. 665 nm).
Fluorescence recovery of the conjugate thus obtained by the reaction in response to a reducing agent present in a high concentration in cancer cells was performed and analyzed in the same manner as in Example 2. On the other hand, a sample prepared by dilution was put into a multifunctional microplate reader to obtain fluorescence spectrum (λEx. 400 nm, λEm. 620˜850 nm) results.
Meanwhile, in order to analyze the reactivity of the reducing agent/enzyme complex reaction type Ce4-CRRCW conjugate to the reducing agent, the conjugate was treated with reducing agents DTT 2 μM and 5 mM for 6 hours and put into a multifunctional microplate reader to obtain the fluorescence spectrum (λEx. 400 nm, λEm. 620˜850 nm) results. In order to analyze the reactivity to the enzyme, the conjugate was treated with cathepsins B, S, L, and S, or cathepsin B pretreated with cathepsin inhibitor E64 for 6 hours and put into a multifunctional microplate reader to obtain the fluorescence spectrum (λEx. 400 nm, λEm. 620˜850 nm) results. In order to analyze the reducing agent/enzyme complex reaction, 5 mM DTT and cathepsin B enzyme were treated together for 6 hours and put into a multifunctional microplate reader to obtain the fluorescence spectrum (λEx. 400 nm, λEm. 620˜850 nm) results.

Data set [2] can be described thus: Singlet oxygen generation (SOSG) under 670 nm laser after DTT treatment. Conditions: for Increase of singlet oxygen generation: 5 mM DTT, 4 hours, 670 nm laser 50 mW/cm^2; for Generation of singlet oxygen in the quenched state: DTT not treated or 2 μM DTT. On the procedure:
Singlet oxygen generation (SOG) was measured by the following method. The C-EGFR conjugate thus obtained was dissolved in PBS to be 2 μM, and then DTT-treated samples were mixed with 2 μM and 5 mM DTT, respectively, and the same amount of PBS was mixed in the buffer-treated group. The mixed solution (200 μl) was cultured at 37° C. for 4 hours. Subsequently, oxygen-saturated PBS including concentrated singlet oxygen sensor green (SOSG) was mixed and the final SOSG concentration was adjusted to 5 μM. Fluorescence intensity change of the SOSG was periodically measured using a 670 nm continuous wavelength laser device during the light irradiation (light irradiation dose: 50 mW/cm^2) of the sample.
In addition, in order to confirm the generation of singlet oxygen (SOG), the same method as in Example 2 was performed and analyzed.

Data set [3] concerns PCA-SMC cells. The experiment in a line: Photodynamic therapy efficacy, CCK-8 assay after 670 nm laser. It is filed as cell-based, human. The note with it: 10 μM, 4 h treatment, washed. In general terms: Tetrazolium assays rely on reduction of a dye to a coloured formazan, in cell work by metabolically active cells.
Method: In order to evaluate the efficacy of photodynamic therapy, PCA-SMC cells were put in a 1×10^3/well and MDA-MB-231 cells and MDA-MB-468 cells were put as much as 1×10^4/well in a 96-well plate, respectively, and were cultured for 24 hours to allow the cells to be adhered well. L-EGFR conjugates were prepared at concentrations of 0.1 μM, 0.5 μM, 1 μM, 2 μM, 5 μM and 10 μM, respectively, treated with cells, and then cultured for 4 hours. Thereafter, the conjugate that had not been absorbed into cells was washed and removed, and then irradiated with a 670 nm laser at an irradiation dose density of 50 mW/cm^2 for 6 minutes and 40 seconds. Thereafter, after further culturing in an incubator until the next day, the cytotoxicity was assessed by CCK-8 assay.
In data set [4] the test system is HCC70 cells. The note with it: 0~10 μM, dark. Here is the method: In the dark state without light, the C-EGFR conjugate of the present invention was treated with 0˜10 μM concentration in HCC70 cells and cytotoxicity was evaluated.
Data set [5] relates to HCC70 cells. The experiment in a line: Cell absorption and fluorescence activity, confocal laser microscope. Conditions: 2 μM, 4 hours. Type of data set: cell-based, human. The source says: In the 8-well Lab-Tek chamber, 5×10^3 PCA-SMC cells and 5×10^4 HCC70 cells were put in each well.
The test system of data set [6] is PCA-SMC cells. The data set is described as above. The note with it: 2 μM, 4 hours. Type of data set: cell-based, human. Here is the method: (§1) Thereafter, the existing medium was replaced with 200 μl of a fresh medium in which 2 μM the conjugate was dissolved, and the cells were cultured for 30 minutes, 1 hour, and 4 hours, respectively.
Data set [7] deals with HCC70 cells. Briefly: Real-time observation of fluorescence quenching and recovery without washing (live cell imaging). It is filed as cell-based, human. The note with it: no washing, images over 4 hours. Here is the method: An experiment was conducted to verify whether a C-EGFR conjugate of the present invention in which fluorescence signal generation has been quenched from outside the target cell strongly generates fluorescence after the absorption of the C-EGFR conjugate into target cells. EGFR-overexpressing HCC70 cells were treated with the C-EGFR conjugate and free photosensitizer (Ce4), and then fluorescence images were obtained at regular time intervals without washing. The detailed method is provided as follows.
The existing medium was then replaced with 0.5 ml of fresh medium including the conjugate and the free photosensitizer. Thereafter, each of the near infrared light fluorescence images (λEx. 640±15 nm, λEm. 690±25 nm) were obtained at intervals of 15 minutes for 4 hours using the Live Cell Imaging System (Axio Observer Z1, Carl Zeiss, Germany) without washing the cells.

In a further data set the test system is trypsin enzyme. Conditions: after 4 hours, 37° C., PBS, λEm 665 nm. Here is the method:
1 nmol of each of Ce4-RRWW and Ce4-RRWWW thus obtained was prepared and dissolved in a PBS solution. The trypsin enzyme was mixed with each […] of each conjugate and fluorescence changes were observed over time at 37° C.

The conditions of data set [8]: 2 μM, PBS including 10% FBS, room temperature, 4 hours. On the procedure: The L-EGFR conjugate of the present invention was mixed with PBS including 10% […], fetal bovine serum (FBS, Gibco, USA), respectively, and cultured, and the stability in the serum was evaluated. The final concentration of the conjugate in solution was adjusted to 2 μM. The solution was allowed to react at room temperature for 4 hours and then put in a multifunctional microplate reader (Safire 2, Tecan, Switzerland) to obtain a fluorescence spectrum (λEx. 400 nm) result.
The Ce4-RRW conjugate of the present invention was mixed with PBS including 10% of FBS and cultured to evaluate the stability in serum. The final concentration of the conjugate in solution was adjusted to 2 μM. The solution was allowed to react at room temperature for 4 hours and then put in a multifunctional microplate reader to obtain a fluorescence spectrum (λEx. 610 nm, λEm. 620˜850 nm) result.

A further data set concerns KB cells. The note with it: 2 μM. On the procedure: KB cells per well were put in a 4-well Lab-Tek chamber per 2×10^5, and were cultured for 24 hours to allow the cells to be absorbed well. Thereafter, the existing medium was replaced with 500 μl of fresh medium in which the Ce4-RRW conjugate (2 μM) was dissolved, and then the cells were cultured for 4 hours.
Finally, the cells were washed three times with the culture medium, and then a near-infrared fluorescence image (λEx. 405 nm, λEm. 625˜754 nm) was obtained using a confocal laser microscope.
Experiments were performed to determine the intracellular location of the Ce4-RRW of the present invention. In the 8-well Lab-Tek chamber, 5×10^4 KB cells were put in each well. The cells were cultured for 24 hours to allow the cells to be absorbed well, and then 2 μM Ce4-RRW was added and cultured for 4 hours, followed by washing three times. Thereafter, after replacing the existing medium with fresh medium including 100 nM LysoTracker Blue DND-22 dye, the cells were cultured for 45 minutes. Fluorescent images of the Ce4-RRW (λEx. 405 nm, λEm. 625˜754 nm) and LysoTracker (λEx. 405 nm, λEm. 411˜497 nm) were obtained for these samples using confocal microscopy.

Data set [9] has as its system MDA-MB-468 cells. Conditions: 0~10 μM, dark. Here is the method:
In the dark state without light, the L-EGFR conjugate of the present invention was added to MDA-MB-468 cells at a concentration of 0˜10 μM and cytotoxicity was evaluated.

A further data set relates to MDA-MB-231 cells. Briefly: Cell absorption and fluorescence activity, confocal laser microscope. It is filed as cell-based, human. Conditions: 2 μM. On the procedure: as §1
In data set [10] the test system is MDA-MB-468 cells. The data set is described as above. Conditions: 2 μM. It is filed as cell-based, human. On the procedure:
as §1
L-EGFR conjugate was treated at a concentration of 2 μM and was cultured for 4 hours, followed by washing three times.

This note sets out measurements from US11813332B2, “Photosensitizer-peptide conjugate comprising degradable linker, and composition for photodynamic diagnosis or treatment comprising same” (NATIONAL CANCER CENTER, priority 2016, dated 2023).

Residues, ends and D or L forms follow the SMILES beside them. *: point of attachment. X1 = C=Cc1c(C)c2cc3nc(c(C)c4nc(cc5[nH]c(cc1[nH]2)c(C)c5CC)C(C)=C4C(=O)O)[C@@H](CCC(=O)*)[C@@H]3C

As to `C=Cc1c(C)c2cc3nc(c(C)c4[nH]c(cc5nc(cc1[nH]2)C(C)=C5CC)c(C)c4C(=O)O)[C@@H](CCC(=O)NCCOCCOCC(=O)N[C@H]1CSSC[C@@H](C(=O)N[C@@H](Cc2ccc(O)cc2)C(=O)N[C@@H](Cc2c[nH]cn2)C(=O)N[C@@H](Cc2c[nH]c4ccccc24)C(=O)N[C@@H](Cc2ccc(O)cc2)C(=O)NCC(=O)N[C@@H](Cc2ccc(O)cc2)C(=O)N[C@H](C(=O)N2CCC[C@H]2C(=O)N[C@@H](CCC(N)=O)C(=O)N[C@@H](CC(N)=O)C(=O)N[C@H](C(=O)N[C@H](C(=O)O)[C@@H](C)CC)C(C)C)[C@@H](C)O)NC1=O)[C@@H]3C` [C-EGFR], in data set [1], the “Time to fluorescence recovery after the start of the reaction” value is not above 30 min and the “Increase of fluorescence intensity by DTT treatment” value worked out at 3.4 times. For the same compound, in [2], the “Increase of singlet oxygen generation” value turned out to be 5 times and the “Generation of singlet oxygen in the quenched state” value is “inhibited”. Moreover, the “Cells alive after photodynamic therapy” value in the data set with PCA-SMC cells [3] is “at least 70%”. In the data set with HCC70 cells [4], the “Cytotoxicity without light irradiation” value is listed as “did not show cytotoxicity”. In addition, in the data set with HCC70 cells [5], the Intracellular fluorescence signal entry is “strong fluorescence signals” and the “Intracellular location (LysoTracker co-staining)” value (from here on “Intracellular location”) is given as “migrated into the lysosomes”. Also, the “Intracellular fluorescence signal / cell entry” value with PCA-SMC cells [6] was “fluorescence signals were hardly exhibited”. Further, the “Fluorescence image without washing” value with HCC70 cells [7] is listed as “fluorescence signal generation is inhibited from outside the cell”.

On to `C=Cc1c(C)c2cc3nc(c(C)c4nc(cc5[nH]c(cc1[nH]2)c(C)c5CC)C(C)=C4C(=O)O)[C@@H](CCC(=O)N[C@@H](CCCNC(=N)N)C(=O)N[C@@H](CCCNC(=N)N)C(=O)N[C@@H](Cc1c[nH]c2ccccc12)C(=O)N[C@@H](Cc1c[nH]c2ccccc12)C(=O)N[C@@H](Cc1c[nH]c2ccccc12)C(=O)O)[C@@H]3C` [Ce4-RRWWW] (X1-RRWWW-OH), for which the “Increase of fluorescence versus initial fluorescence after trypsin treatment” value in the data set on trypsin enzyme is listed as 4.3 times.

On to `C=Cc1c(C)c2cc3nc(c(C)c4nc(cc5[nH]c(cc1[nH]2)c(C)c5CC)C(C)=C4C(=O)O)[C@@H](CCC(=O)N[C@@H](CCCNC(=N)N)C(=O)N[C@@H](CCCNC(=N)N)C(=O)N[C@@H](Cc1c[nH]c2ccccc12)C(=O)N[C@@H](Cc1c[nH]c2ccccc12)C(=O)O)[C@@H]3C` [Ce4-RRWW], for which the “Increase of fluorescence versus initial fluorescence after trypsin treatment” value in the data set with trypsin enzyme is “about 1.6 times”.

Turning to `C=Cc1c(C)c2cc3nc(c(C)c4nc(cc5[nH]c(cc1[nH]2)c(C)c5CC)C(C)=C4C(=O)O)[C@@H](CCC(=O)N[C@@H](CCCNC(=N)N)C(=O)N[C@@H](CCCNC(=N)N)C(=O)N[C@@H](Cc1c[nH]c2ccccc12)C(=O)O)[C@@H]3C` [Ce4-RRW], the “Effect of serum protein on fluorescence of the conjugate” value in [8] is recorded as “did not affect the fluorescence”. Also, the Intracellular fluorescence signal entry in the data set on KB cells is given as “strong fluorescence signal”. The “Intracellular location” value with KB cells (4 hours) is recorded as “located in the lysosome”.

Take `C=Cc1c(C)c2cc3nc(c(C)c4[nH]c(cc5nc(cc1[nH]2)C(C)=C5CC)c(C)c4C(=O)O)[C@@H](CCC(=O)NCCOCCOCC(=O)N[C@@H](CSSC[C@H](N)C(=O)N[C@@H](Cc1ccc(O)cc1)C(=O)N[C@@H](Cc1c[nH]cn1)C(=O)N[C@@H](Cc1c[nH]c2ccccc12)C(=O)N[C@@H](Cc1ccc(O)cc1)C(=O)NCC(=O)N[C@@H](Cc1ccc(O)cc1)C(=O)N[C@H](C(=O)N1CCC[C@H]1C(=O)N[C@@H](CCC(N)=O)C(=O)N[C@@H](CC(N)=O)C(=O)N[C@H](C(=O)N[C@H](C(=O)O)[C@@H](C)CC)C(C)C)[C@@H](C)O)C(=O)O)[C@@H]3C` [L-EGFR]: in data set [1], the “Fluorescence recovered within 5 minutes after the start of the reaction” value is reported as “at least 90%” and the “Increase of fluorescence intensity by DTT treatment” value came out at 2.5 times. Besides, in [2], the “Increase of singlet oxygen generation” value came out at 2 times and the “Generation of singlet oxygen in the quenched state” value is “suppressed”. Moreover, the “Cells alive after photodynamic therapy” value with PCA-SMC cells [3] is given as “at least 70%”. The “Cytotoxicity without light irradiation” value with MDA-MB-468 cells [9] is “did not show cytotoxicity”. In addition, in [8], the “Effect of serum protein on fluorescence of the conjugate” value is recorded as “did not affect the fluorescence intensity”. Also, the “Intracellular fluorescence signal with culture time” value in the data set with MDA-MB-231 cells (30 minutes to 4 hours) is listed as “fluorescence intensity was increased with increasing culture time”. In addition, the Intracellular fluorescence signal result in the data set on MDA-MB-231 cells (first 30 minutes) is recorded as “fluorescence was almost not observed”. In addition, in the data set on PCA-SMC cells [6], the “Intracellular fluorescence signal / cell entry” value was “did not enter the cell even after culturing for 4 hours”. In addition, the Fluorescence signal entry with MDA-MB-468 cells [10] (30 minutes) is “strong fluorescence signal on the cell surface”. In addition, the “Intracellular location” value with MDA-MB-468 cells [10] (4 hours) was “activated in the lysosome”.

Turning to “chlorin e4 [free photosensitizer, reference compound]”, the “Fluorescence image without washing” value with HCC70 cells [7] is listed as “position of cancer cells cannot be distinguished”.
